Results as given in patent publication US20070004660A1, “Synergistic Modulation of Flt3 Kinase Using Alkylquinolines and Alkylquinazolines” (priority 2005, published 2007).

Molecular target: T1, wild-type FLT3 receptor (Homo sapiens, UniProt P36888)
T1 construct: host or cells: Baf3 (murine B cell lymphoma line), stably transfected
T1 sequence (P36888 27-993): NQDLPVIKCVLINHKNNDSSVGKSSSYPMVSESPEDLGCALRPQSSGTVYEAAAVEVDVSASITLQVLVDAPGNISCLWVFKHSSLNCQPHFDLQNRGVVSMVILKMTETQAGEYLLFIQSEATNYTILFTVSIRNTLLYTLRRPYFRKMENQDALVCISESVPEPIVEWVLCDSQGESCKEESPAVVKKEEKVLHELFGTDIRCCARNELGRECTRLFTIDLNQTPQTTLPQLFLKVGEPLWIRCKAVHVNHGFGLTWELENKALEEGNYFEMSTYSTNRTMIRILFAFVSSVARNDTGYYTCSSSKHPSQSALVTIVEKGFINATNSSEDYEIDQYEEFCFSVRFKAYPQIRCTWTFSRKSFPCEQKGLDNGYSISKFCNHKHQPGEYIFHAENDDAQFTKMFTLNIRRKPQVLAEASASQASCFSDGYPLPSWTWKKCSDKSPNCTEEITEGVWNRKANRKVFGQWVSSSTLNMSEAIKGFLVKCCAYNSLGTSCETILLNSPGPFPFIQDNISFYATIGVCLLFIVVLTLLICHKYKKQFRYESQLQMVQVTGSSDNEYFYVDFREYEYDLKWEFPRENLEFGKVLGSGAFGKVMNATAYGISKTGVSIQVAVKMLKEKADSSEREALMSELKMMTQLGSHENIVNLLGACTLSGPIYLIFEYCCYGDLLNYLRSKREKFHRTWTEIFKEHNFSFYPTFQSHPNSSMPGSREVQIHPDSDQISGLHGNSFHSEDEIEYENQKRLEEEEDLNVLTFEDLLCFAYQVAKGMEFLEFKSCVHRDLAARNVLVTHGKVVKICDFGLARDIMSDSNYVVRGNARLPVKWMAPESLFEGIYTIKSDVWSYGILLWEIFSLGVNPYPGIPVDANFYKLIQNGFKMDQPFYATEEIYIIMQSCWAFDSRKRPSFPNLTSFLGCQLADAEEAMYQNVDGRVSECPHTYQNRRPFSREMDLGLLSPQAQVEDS
Experiment: Cell-based FLT3 receptor ELISA (FLT ligand-induced phosphorylation in Baf3 FLT3 cells)
Conditions: 100 ng/mL Flt ligand, uncertainty ±20%
Outline: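 Receptor phosphotyrosine measured by sandwich ELISA (anti-FLT3 capture, HRP anti-pTyr, luminescence) in FLT3-transfected murine Baf3 cells given 1 h compound pretreatment and 10 min 100 ng/mL FLT ligand after overnight low-serum starvation; triplicates, IC50 from nonlinear regression.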

| SMILES | IC50 [nM] |
| --- | --- |
| COc1cc2c(C3CCN(C(=O)Nc4ccc(N5CCOCC5)cc4)CC3)ncnc2cc1OCCCN1CCN(C)CC1 [Compound 207, 4-{6-Methoxy-7-[3-(4-methyl-piperazin-1-yl)-propoxy]-quinazolin-4-yl}-piperidine-1-carboxylic acid (4-morpholin-4-yl-phenyl)-amide] | 42 |
| COc1cc2c(C3CCN(C(=O)Nc4ccc(N5CCCC5)cc4)CC3)ncnc2cc1OCCN1CCCC1=O [Compound 209, 4-{6-Methoxy-7-[2-(2-oxo-pyrrolidin-1-yl)-ethoxy]-quinazolin-4-yl}-piperidine-1-carboxylic acid (4-pyrrolidin-1-yl-phenyl)-amide] | 37 |
| O=C(Nc1ccc(N2CCCC2)cc1)N1CCC(c2ncnc3cc(N4CCOCC4)c(F)cc23)CC1 [Compound 210, 4-(6-Fluoro-7-morpholin-4-yl-quinazolin-4-yl)-piperidine-1-carboxylic acid (4-pyrrolidin-1-yl-phenyl)-amide] | 25 |
| O=C1CCCN1CCOc1cc2ncnc(C3CCN(C(=O)Nc4ccc(N5CCCC5)cc4)CC3)c2cc1F [Compound 206, 4-{6-Fluoro-7-[2-(2-oxo-pyrrolidin-1-yl)-ethoxy]-quinazolin-4-yl}-piperidine-1-carboxylic acid (4-pyrrolidin-1-yl-phenyl)-amide] | 22 |
| COc1cc2ncnc(C3CCN(C(=O)Cc4ccc(C(C)C)cc4)CC3)c2cc1OC [Example 28, 1-[4-(6,7-Dimethoxy-quinazolin-4-yl)-piperidin-1-yl]-2-(4-isopropyl-phenyl)-ethanone] | 2 |
| COc1cc2ncnc(C3CCN(C(=O)Nc4ccc(N(C)C)cc4)CC3)c2cc1OC [Example 26, 4-(6,7-Dimethoxy-quinazolin-4-yl)-piperidine-1-carboxylic acid (4-dimethylamino-phenyl)-amide] | 109 |
| COc1cc2c(C3CCN(C(=O)Nc4ccc(N5CCOCC5)cc4)CC3)ncnc2cc1N1CCOCC1 [Compound 212, 4-(6-Methoxy-7-morpholin-4-yl-quinazolin-4-yl)-piperidine-1-carboxylic acid (4-morpholin-4-yl-phenyl)-amide] | 93 |
| CC(C)c1ccc(NC(=O)N2CCC(c3ncnc4cc(Cl)ccc34)CC2)cc1 [Example 30, 4-(7-Chloro-quinazolin-4-yl)-piperidine-1-carboxylic acid (4-isopropyl-phenyl)-amide] | 83 |
| CC(C)Oc1ccc(NC(=O)N2CCC(c3ncnc4cc(Cl)ccc34)CC2)cc1 [Example 29, 4-(7-Chloro-quinazolin-4-yl)-piperidine-1-carboxylic acid (4-isopropoxy-phenyl)-amide] | 50 |
| COc1ccc2c(C3CCN(C(=O)Nc4ccc(C(C)C)cc4)CC3)ncnc2c1 [Example 32, 4-(7-Methoxy-quinazolin-4-yl)-piperidine-1-carboxylic acid (4-isopropyl-phenyl)-amide] | 35 |
| COc1cc2c(C3CCN(C(=O)Nc4ccc(N5CCCC5)cc4)CC3)ncnc2cc1N1CCOCC1 [Compound 211, 4-(6-Methoxy-7-morpholin-4-yl-quinazolin-4-yl)-piperidine-1-carboxylic acid (4-pyrrolidin-1-yl-phenyl)-amide] | 1 |
| COc1cc2ncnc(C3CCN(C(=O)Nc4ccc(I)cc4)CC3)c2cc1OC [Example 2, 4-(6,7-Dimethoxy-quinazolin-4-yl)-piperidine-1-carboxylic acid (4-iodo-phenyl)-amide] | 890 |
| COc1cc2ncnc(C3CCN(C(=O)Nc4ccc(NC(C)=O)cc4)CC3)c2cc1OC [Example 25, 4-(6,7-Dimethoxy-quinazolin-4-yl)-piperidine-1-carboxylic acid (4-acetylamino-phenyl)-amide] | > 10000 |
| COc1ccc2c(C3CCN(C(=O)Nc4ccc(OC(C)C)cc4)CC3)ncnc2c1 [Example 31, 4-(7-Methoxy-quinazolin-4-yl)-piperidine-1-carboxylic acid (4-isopropoxy-phenyl)-amide] | 55 |
| CC(C)Oc1ccc(NC(=O)N2CCC(c3ncnc4cc(OCCCN5CCCCC5)ccc34)CC2)cc1 [Example 33, 4-(7-(3-Piperidin-1-yl-propoxy)-quinazolin-4-yl)-piperidine-1-carboxylic acid (4-isopropoxy-phenyl)-amide] | 11 |
| COc1cc2ncnc(C3CCN(C(=O)Nc4ccc(-n5ccnc5)cc4)CC3)c2cc1OC [Example 3, 4-(6,7-Dimethoxy-quinazolin-4-yl)-piperidine-1-carboxylic acid (4-imidazol-1-yl-phenyl)-amide] | 938 |

The next lines start with the values.

| IC50 [nM] | SMILES |
| --- | --- |
| 15 | CC(C)Oc1ccc(NC(=O)N2CCC(c3ncnc4cc(OCCCN5CCOCC5)ccc34)CC2)cc1 [Example 38] |
| 8 | CC(C)Oc1ccc(NC(=O)N2CCC(c3ncnc4cc(OCCCN5CCN(C)CC5)ccc34)CC2)cc1 [Example 39] |
| 79 | CC(C)Oc1ccc(NC(=O)N2CCC(c3ncnc4cc(OCCN5CCCCC5)ccc34)CC2)cc1 [Example 34, 4-(7-(2-Piperindin-1-yl-ethoxy)-quinazolin-4-yl)-piperidine-1-carboxylic acid (4-isopropoxy-phenyl)-amide] |
| 51 | CC(C)Oc1ccc(NC(=O)N2CCC(c3ncnc4cc(OCCN5CCOCC5)ccc34)CC2)cc1 [Example 37] |
| 1500 | COCCOc1ccc(NC(=O)N2CCC(c3ncnc4cc(OC)c(OC)cc34)CC2)cc1 [Example 40, 4-(6,7-Dimethoxy-quinazolin-4-yl)-piperidine-1-carboxylic acid [4-(2-methoxy-ethoxy)-phenyl]-amide] |
| 60 | CCN(CC)CCOc1ccc2c(C3CCN(C(=O)Nc4ccc(OC(C)C)cc4)CC3)ncnc2c1 [Example 35, 4-[7-(2-Diethylamino-ethoxy)-quinazolin-4-yl)-piperidine-1-carboxylic acid (4-isopropoxy-phenyl)-amide] |
| 18 | CCN(CC)CCCOc1ccc2c(C3CCN(C(=O)Nc4ccc(OC(C)C)cc4)CC3)ncnc2c1 [Example 36, 4-[7-(3-Diethylamino-propoxy)-quinazolin-4-yl)-piperidine-1-carboxylic acid (4-isopropoxy-phenyl)-amide] |
